Results on one molecule are retold here after US8686115B2, “Compositions and methods for quantitatively monitoring lipids” (The Board of Trustees of the University of Illinois, priority 2009, dated 2014).

The target of experiment [1] is T1, PLCδ-PH (PLCδ PH domain) (Homo sapiens, UniProt P51178).
T1 sequence (P51178 21-130 limits assumed): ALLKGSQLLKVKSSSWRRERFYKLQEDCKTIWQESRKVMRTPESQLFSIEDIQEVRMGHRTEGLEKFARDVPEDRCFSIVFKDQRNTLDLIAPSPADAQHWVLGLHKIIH
The experiment can be described thus: SPR equilibrium binding of PLCδ-PH to phosphoinositide-containing LUVs. The following applies: POPC/POPS/PtdIns(4,5)P2 (77:20:3) LUVs, 20 mM Tris-HCl pH 7.4, 0.16 M KCl, read-out: Kd for PtdIns(4,5)P2. As to the method: With respect to FIG. […] The proteins were incubated with a given concentration of IP3 for 5 minutes before injecting into the SPR instrument. Kinetic SPR measurements were performed in 20 mM Tris-HCL, pH 7.4, containing 0.16 KCl. […] A lower concentration of DAN-eENTH was used than that of PLCδ PH because the former has much higher affinity that the latter.
LUVs were prepared by extrusion using a 100 nm-pore membrane. GUVs were prepared by electroformation. The lipid mixture were prepared in chloroform/methanol (3:1) at a total concentration of 0.4 mg/ml, then the lipid solution was spread onto the indium-tin oxide electrode surface and the lipid was dried under vacuum to form a uniform lipid film. Vesicles were grown in a sucrose solution (350 mM) while an electric field (3V, 20 Hz frequency) was applied for 5 hour at room temperature. After 1 to […] of sucrose-loaded GUV solution was added into a well glued onto a coverslip that was placed on the microscope stage. The well contained […] of 20 mM Tris-HCl buffer, pH 7.4, with 0.16 M KCl solution. The diameter of GUVs ranged from 5 to 30 μm.

The target of experiment [2] is T2, DAN-eENTH: epsin 1 ENTH domain variant M10C/C96A/S4W, SEQ ID NO: 2, labeled with DAN at C10 (Homo sapiens, UniProt Q9Y6I3, C96A/M10C/S4W).
T2 construct: The Epsin1 ENTH domain (1-158 amino acids) was subcloned; GST (C, cleaved yes); made in house; host or cells: E. coli BL21 RIL codon plus
T2 sequence (Q9Y6I3 1-158 S4W/M10C/C96A): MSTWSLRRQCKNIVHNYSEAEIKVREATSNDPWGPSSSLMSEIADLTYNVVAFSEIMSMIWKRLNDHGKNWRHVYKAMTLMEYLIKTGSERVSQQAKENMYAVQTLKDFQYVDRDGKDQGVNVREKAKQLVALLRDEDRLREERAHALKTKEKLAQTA
The experiment can be described thus: Ratiometric (FB/FG) two-photon microscopy of DAN-eENTH binding to PtdIns(4,5)P2 in GUVs. Conditions: FB/FG versus [PtdIns(4,5)P2]; POPC/POPS/PtdIns(4,5)P2 (80-x:20:x) GUVs; 37° C.; read-out: Kd for PtdIns(4,5)P2 (FB/FG ratiometric analysis). As to the method:
The background correction for FB/FG values was unnecessary because FB=0 in the absence of PtdIns(4,5)P2. […] The theoretic curve was then constructed using these parameters.
To calibrate the fluorescence microscope and the DAN-eENTH sensor for cellular PtdIns(4,5)P2 quantification, we then determined by photon counting F values in the blue channel (FB; observed with a 436±10 band pass filter) and the green channel (FG; observed with a 525±25 band pass filter) when DAN-eENTH was added to the solution of giant unilamellar vesicles (GUV) with the composition of POPC/POPS/PtdIns(4,5)P2 (80-x:20:x with x=0-3). […] The resulting FB versus the surface concentration of PtdIns(4,5)P2 ([PtdIns(4,5)P2]s; see Methods for calculation) (FIG. 2C) or (FB/FG) versus [PtdIns(4,5)P2]s (FIG. 2d) calibration curve was used for ensuing PtdIns(4,5)P2 quantification in GUV and in mammalian cells. With respect to FIG. 5, the bar indicates 10 μm and the radius of this GUV is measured as […]. […]
In vitro calibration of our DAN-eENTH sensor was performed using GUVs composed of POPC/POPS/PtdIns(4,5)P2 (80-x:20:x) (x=0-3 mol %). […] These GUV were mixed with DAN-eENTH in the concentration range of 0-500 nM and spatiotemporally resolved fluorescence measurements were carried out at 37° C. using the custom-built multi-photon, multi-channel microscope that was described previously 13. […]

`CCCCCCCCCCCCCCCC(=O)OC[C@H](COP(=O)(O)O[C@@H]1[C@H](O)[C@H](O)[C@@H](OP(=O)(O)O)[C@H](OP(=O)(O)O)[C@H]1O)OC(=O)CCCCCCCCCCCCCCC` [PtdIns(4,5)P2, phosphatidylinositol-4,5-bisphosphate]: the values for the Kd in experiment [1] and in experiment [2] were 0.18 µM and 0.044 ± 0.006 µM, respectively.
